From US20230085307A1, “PYRIDAZINONE COMPOUND AND HERBICIDE” (NISSAN CHEMICAL CORPORATION, priority 2019, published 2023)

Assays:
late watergrass [1] = experiment: Test Example 1: herbicidal activity, application before weed generation under submerged conditions (Table 16, symbol A); format: in vivo, late watergrass (Echinochloa oryzicola); details: 320 g/ha applied herbicide
In short: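 Emulsion formulation, water-diluted to set dose, was put onto the flooded surface (4 cm depth, alluvial soil) the same day weeds were sown and 2.5-leaf rice transplanted. After 3 weeks at 25-30 °C under glass, each species was rated 0 (≤5% kill) to 5 (≥90% kill).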

late watergrass [2] = experiment: Test Example 2: herbicidal activity, application during weed generation under submerged conditions (Table 17, symbol A); format: in vivo, late watergrass (Echinochloa oryzicola); details: AAH 320 g/ha; application during weed generation, submerged conditions
In short: (§1)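 In this pot test, flooded alluvial soil (water depth 4 cm) holds all three species sown as a mixture. Once seedlings have one to two leaves, the compound's emulsion, thinned with water to the intended dose, is poured on the water; grading follows after three weeks on the earlier criteria.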

Japanese bulrush = experiment: Test Example 2: herbicidal activity, application during weed generation under submerged conditions (Table 17, symbol B); format: in vivo, Japanese bulrush (Schoenoplectus juncoides); details: AAH 320 g/ha; application during weed generation, submerged conditions
In short: as §1

barnyard grass = experiment: Test Example 3: herbicidal effect by foliage application, Wagner pot (Table 18, symbol H); format: in vivo, barnyard grass (Echinochloa crus-galli)
In short: (§2)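 Plants were sown in alluvial soil held under 0.1–0.5 cm standing water and grown 14 days in a greenhouse at 25–30 °C. An emulsifiable formulation, water-diluted to the set dose, was then sprayed onto the foliage, and effects were scored three weeks later using previously defined criteria.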

Chinese sprangletop = experiment: Test Example 3: herbicidal effect by foliage application, Wagner pot (Table 18, symbol D); format: in vivo, chinese sprangletop (Leptochloa chinensis)
In short: as §2

southern crabgrass [3] = experiment: Test Example 4: herbicidal effect by soil treatment (Table 19, symbol F); format: in vivo, southern crabgrass (Digitaria ciliaris); details: amount of applied herbicide 320 g/ha
In short: (§3)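 Herbicidal effect was rated 3 weeks after treatment, using the scoring criteria of an earlier test. The compound, formulated as an emulsion and diluted in water to a set herbicide amount, had been sprayed uniformly on soil over freshly sown seeds. Growth took place in a greenhouse at 25° C. to 30° C.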

blackgrass = experiment: Test Example 4: herbicidal effect by soil treatment (Table 19, symbol J); format: in vivo, blackgrass (Alopecurus myosuroides); details: amount of applied herbicide 320 g/ha
In short: as §3

Italian ryegrass [4] = experiment: Test Example 4: herbicidal effect by soil treatment (Table 19, symbol K); format: in vivo, Italian ryegrass (Lolium multiflorum); details: amount of applied herbicide 320 g/ha
In short: as §3

windgrass [5] = experiment: Test Example 4: herbicidal effect by soil treatment (Table 19, symbol L); format: in vivo, windgrass (Apera spica-venti); details: amount of applied herbicide 320 g/ha
In short: as §3

velvetleaf = experiment: Test Example 4: herbicidal effect by soil treatment (Table 19, symbol M); format: in vivo, velvetleaf (Abutilon theophrasti); details: amount of applied herbicide 320 g/ha
In short: as §3

lambsquarters [6] = experiment: Test Example 4: herbicidal effect by soil treatment (Table 19, symbol O); format: in vivo, lambsquarters (Chenopodium album); details: amount of applied herbicide 320 g/ha
In short: as §3

persian speedwell [7] = experiment: Test Example 4: herbicidal effect by soil treatment (Table 19, symbol R); format: in vivo, Persian speedwell (Veronica persica); details: amount of applied herbicide 320 g/ha
In short: as §3

southern crabgrass [8] = experiment: Test Example 5: herbicidal effect by foliage application, plastic box (Table 20, symbol F); format: in vivo, southern crabgrass (Digitaria ciliaris); details: foliage application, 320 g/ha
In short: (§4)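 Foliar spray test: emulsion formulation diluted in water to a set application rate, sprayed onto 14-day-old plants raised in diluvial soil at 25° C to 30° C under glass. Both herbicidal effect and crop effect rated visually three weeks later.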

Italian ryegrass [9] = experiment: Test Example 5: herbicidal effect by foliage application, plastic box (Table 20, symbol K); format: in vivo, Italian ryegrass (Lolium multiflorum); details: foliage application, 320 g/ha
In short: as §4

windgrass [10] = experiment: Test Example 5: herbicidal effect by foliage application, plastic box (Table 20, symbol L); format: in vivo, windgrass (Apera spica-venti); details: foliage application, 320 g/ha
In short: as §4

lambsquarters [11] = experiment: Test Example 5: herbicidal effect by foliage application, plastic box (Table 20, symbol O); format: in vivo, lambsquarters (Chenopodium album); details: foliage application, 320 g/ha
In short: as §4

persian speedwell [12] = experiment: Test Example 5: herbicidal effect by foliage application, plastic box (Table 20, symbol R); format: in vivo, Persian speedwell (Veronica persica); details: foliage application, 320 g/ha
In short: as §4

[13] = amount of applied herbicide 320 g/ha
[14] = evaluated three weeks after application

Compound: Cc1nn(C)c(=O)c(-c2c(-c3ccc4c(c3)OCO4)sc3ccccc23)c1O [1-087]
- Herbicidal effect on A: late watergrass (grade 0-5) (late watergrass [1]): 3 (Herbicidal rate of 40% or more and less than 70%)
- herbicidal effect rating, A: late watergrass (late watergrass [2]): 2 (Herbicidal rate of 20% or more and less than 40%)
- herbicidal effect rating, B: Japanese bulrush (Japanese bulrush): 1 (Herbicidal rate of 5% or more and less than 20%)
- herbicidal effect on H (barnyard grass), rating 0-5 (barnyard grass; 320 g/ha): 4 (Herbicidal rate of 70% or more and less than 90%)
- herbicidal effect on D (Chinese sprangletop), rating 0-5 (Chinese sprangletop; 320 g/ha): 3 (Herbicidal rate of 40% or more and less than 70%)
- herbicidal effect rating, F: southern crabgrass (southern crabgrass [3]): 2 (Herbicidal rate of 20% or more and less than 40%)
- herbicidal effect rating, J: blackgrass (blackgrass): 0 (Herbicidal rate of 5% or less (almost no effect))
- herbicidal effect rating, K: Italian ryegrass (Italian ryegrass [4]): 3 (Herbicidal rate of 40% or more and less than 70%)
- herbicidal effect rating, L: windgrass (windgrass [5]): 0 (Herbicidal rate of 5% or less (almost no effect))
- herbicidal effect rating, M: velvetleaf (velvetleaf): 0 (Herbicidal rate of 5% or less (almost no effect))
- herbicidal effect rating, O: lambsquarters (lambsquarters [6]): 5 (Herbicidal rate of 90% or more (almost completely withered))
- herbicidal effect rating, R: persian speedwell (persian speedwell [7]): 5 (Herbicidal rate of 90% or more (almost completely withered))
- herbicidal effect grade, F: southern crabgrass (southern crabgrass [8]; three weeks after application): 5 (Herbicidal rate of 90% or more (almost completely withered))
- herbicidal effect grade, K: Italian ryegrass (Italian ryegrass [9]; three weeks after application): 3 (Herbicidal rate of 40% or more and less than 70%)
- herbicidal effect grade, L: windgrass (windgrass [10]; three weeks after application): 0 (Herbicidal rate of 5% or less (almost no effect))
- herbicidal effect grade, O: lambsquarters (lambsquarters [11]; three weeks after application): 3 (Herbicidal rate of 40% or more and less than 70%)
- herbicidal effect grade, R: persian speedwell (persian speedwell [12]; three weeks after application): 5 (Herbicidal rate of 90% or more (almost completely withered))

Compound: CCCSc1ccc(-c2sc3ccc(F)cc3c2-c2c(OC(=O)CCC)c(C)nn(C)c2=O)cc1 [2-249]
- Herbicidal effect on A: late watergrass (grade 0-5) (late watergrass [1]): 3 (Herbicidal rate of 40% or more and less than 70%)
- herbicidal effect rating, A: late watergrass (late watergrass [2]): 4 (Herbicidal rate of 70% or more and less than 90%)
- herbicidal effect rating, B: Japanese bulrush (Japanese bulrush): 0 (Herbicidal rate of 5% or less (almost no effect))
- herbicidal effect on H: barnyard grass (barnyard grass; [13]): 5 (Herbicidal rate of 90% or more (almost completely withered))
- herbicidal effect on D: Chinese sprangletop (Chinese sprangletop; [13]): 3 (Herbicidal rate of 40% or more and less than 70%)
- herbicidal effect on F: southern crabgrass (southern crabgrass [3]): 3 (Herbicidal rate of 40% or more and less than 70%)
- herbicidal effect on J: blackgrass (blackgrass): 0 (Herbicidal rate of 5% or less (almost no effect))
- herbicidal effect on K: Italian ryegrass (Italian ryegrass [4]): 0 (Herbicidal rate of 5% or less (almost no effect))
- herbicidal effect on L: windgrass (windgrass [5]): 0 (Herbicidal rate of 5% or less (almost no effect))
- herbicidal effect on M: velvetleaf (velvetleaf): 1 (Herbicidal rate of 5% or more and less than 20%)
- herbicidal effect on O: lambsquarters (lambsquarters [6]): 3 (Herbicidal rate of 40% or more and less than 70%)
- herbicidal effect on R: persian speedwell (persian speedwell [7]): 4 (Herbicidal rate of 70% or more and less than 90%)
- herbicidal effect on F: southern crabgrass (criteria 0-5) (southern crabgrass [8]; [14]): 5 (Herbicidal rate of 90% or more (almost completely withered))
- herbicidal effect on K: Italian ryegrass (criteria 0-5) (Italian ryegrass [9]; [14]): 3 (Herbicidal rate of 40% or more and less than 70%)
- herbicidal effect on L: windgrass (criteria 0-5) (windgrass [10]; [14]): 4 (Herbicidal rate of 70% or more and less than 90%)
- herbicidal effect on O: lambsquarters (criteria 0-5) (lambsquarters [11]; [14]): 4 (Herbicidal rate of 70% or more and less than 90%)
- herbicidal effect on R: persian speedwell (criteria 0-5) (persian speedwell [12]; [14]): 5 (Herbicidal rate of 90% or more (almost completely withered))
